The text below walks through data of patent US7514562B2, “Urea derivatives and their use as vanilloid receptor antagonists in the treatment of pain” (Glaxo Group Limited, priority 2003, dated 2009).

The assay deals with T1, human VR1 (Homo sapiens, UniProt Q8NER1).
T1 construct: expressed in transfected cells
The assay can be described thus: FLIPR based calcium assay, antagonism of capsaicin response in 1321N1 cells stably expressing human VR1. It counts as cell-based. As to conditions: transfected astrocytoma 1321N1 cells, 30 min pre-incubation, capsaicin challenge; pKb generated from IC50 using the Cheng-Prusoff equation. How it is done: The plates were then washed 4 times with Tyrode containing 1.5 mM calcium, without probenecid. […] Capsaicin (Sigma) was then added to the cells. Compounds having antagonist activity against the human VR1 were identified by detecting differences in fluorescence when measured after capsaicin addition, compared with no compound buffer controls.

Structures are written as SMILES.

T1 sequence (Q8NER1 whole entry): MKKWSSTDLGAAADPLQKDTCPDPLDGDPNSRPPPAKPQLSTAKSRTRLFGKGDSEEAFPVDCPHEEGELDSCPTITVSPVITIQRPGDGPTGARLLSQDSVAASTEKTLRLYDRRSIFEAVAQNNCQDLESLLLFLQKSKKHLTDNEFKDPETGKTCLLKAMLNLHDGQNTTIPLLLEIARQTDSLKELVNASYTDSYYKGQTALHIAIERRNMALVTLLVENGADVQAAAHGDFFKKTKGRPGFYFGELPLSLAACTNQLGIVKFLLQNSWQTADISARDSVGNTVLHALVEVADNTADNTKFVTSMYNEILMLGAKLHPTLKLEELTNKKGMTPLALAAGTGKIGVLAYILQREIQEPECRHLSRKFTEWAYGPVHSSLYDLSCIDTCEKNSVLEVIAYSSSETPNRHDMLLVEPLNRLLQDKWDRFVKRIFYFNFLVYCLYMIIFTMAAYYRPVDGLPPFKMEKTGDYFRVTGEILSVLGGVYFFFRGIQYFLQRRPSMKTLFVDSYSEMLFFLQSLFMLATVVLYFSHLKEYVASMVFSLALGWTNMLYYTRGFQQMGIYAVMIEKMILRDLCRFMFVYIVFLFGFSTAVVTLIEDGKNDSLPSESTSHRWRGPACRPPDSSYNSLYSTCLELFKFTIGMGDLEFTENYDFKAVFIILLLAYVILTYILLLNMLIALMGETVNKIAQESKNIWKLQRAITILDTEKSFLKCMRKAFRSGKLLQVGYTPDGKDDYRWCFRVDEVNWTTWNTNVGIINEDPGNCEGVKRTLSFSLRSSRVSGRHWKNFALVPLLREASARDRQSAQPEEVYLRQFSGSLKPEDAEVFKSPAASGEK

As to `Cc1cc2c(NC(=O)NC3CN(c4ccc(C(F)(F)F)cn4)C3)cccc2nn1` [Example 16], the Kb (commonly the affinity of an antagonist, worked out from how it opposes an agonist) is less than 100 nM.
